This note sets out measurements from US9926354B2, “Amyloid precursor protein (APP) based Ã#-secretase inhibitor peptides, and methods of use” (UNIVERSITY OF SOUTH FLORIDA, priority 2014, dated 2018).

Assay [1] concerns the target BACE1 (Homo sapiens, UniProt P56817). As to the kind of experiment: Binding to and cleavage by recombinant BACE1 (WB, IP). Conditions: biotin-labeled peptide, recombinant BACE1, 4 hours. On the procedure:
Biotin-labeled TAT-APPsweBBP was incubated with or without recombinant BACE1 protein and examined by western blot (A). Full length TAT-APPsweBBP and β-cleaved TAT-APPsweBBP were clearly detected. Immunoprecipitation (IP) with anti-BACE1 antibody and subsequent WB with anti-biotin antibody (B) and IP with anti-biotin antibody and then WB with anti-BACE1 antibody (C) both reveal that TAT-APPsweBBP, but not TAT peptide, binds to BACE1. To further confirm TAT-APPswcBPP can bind to BACE1, human wild-type APP expressing CHO cells were incubated with biotin-labeled TAT-APPsweBBP or biotin-labeled APPsweBBP at 20 μM for 30 minutes, and then stained with anti-BACE1 or anti-biotin antibodies (D). […] In addition, these treated cells were further analyzed by IP with anti-biotin and subsequent WB with anti-BACE1 antibodies (E), with results showing that TAT-APPsweBBP strongly and specifically binds to BACE1.
In order to confirm that APPsweBBP containing the β-cleavage site could bind to and be consequently proteolyzed by BACE1, 10 μg of biotin-labeled TAT-APPsweBBP was incubated with or without 10 μL of recombinant BACE1 protein (1.0 U/mL) in BACE1 reaction buffer for 4 hours at 37° C. and then subjected to Western blot (WB) analysis as described previously (Rezai-Zadeh et al., 2005; Obregon et al., 2012). […]

The test system of assay [2] is CHO cells over-expressing human wild-type APP (CHO/APPwt). In words: Aβ and sAPPα production in cultured media of CHO/APPwt cells by ELISA (24 hours). The conditions noted are these: 20 μg/mL. Format: cell-based, Chinese hamster. The protocol:
Cell Culture—Chinese hamster ovary (CHO) cells engineered to express wild-type human APP (CHO/APPwt cells) or Swedish mutant human APP (CHO/APPswe cells) were kindly provided by Dr. Stefanie Hahn and Dr. Sascha Weggen (University of Heinrich Heine, Dusseldorf, Germany). As described previously (Obregon et al., 2012), these cells were cultured in Dulbecco's modified Eagle's medium (DMEM) with 10% fetal bovine serum (FBS), 1 mM sodium pyruvate, and 100 units/mL of penicillin and streptomycin.
To confirm the binding of APPsweBBP with BACE1, CHO/APPwt cells were plated in 8-well chambers (5×10^5/well), incubated with TAT-APPsweBBP-biotin or APPsweBBP-biotin at 20 μM for 30 minutes, fixed with 4% paraformaldehyde for 20 minutes, washed and permeabilized with 0.5% Triton X-100. Following application of blocking buffer, these cells were stained with mouse anti-BACE1 and rabbit anti-biotin antibodies overnight at 4° C. for immunocytochemistry analysis. […] The cultured media were collected for Aβ analysis by enzyme-linked immunosorbent assay (ELISA) and sAPPα analysis by ELISA and Western blot (WB). Cell lysates were also prepared for analysis of APP amyloidogenic processing by WB.
ELISA—Mouse brains were homogenized in ice-cold lysis buffer for 30 seconds using a Minilys tissue homogenizer (Bertin Technologies, Montigny-le-Bretonneux, France) set at high speed, allowed to stand for 15 minutes at 4° C., and centrifuged at 15,000 rpm for 30 minutes. Soluble Aβ1-40/42 species and sAPPα were directly detected in cultured cell media or brain homogenates using the Aβ1-40/42 (Invitrogen) and sAPPα ELISA kits (IBL-America, Minneapolis, Minn., USA).
To further examine the ability of the Swedish mutant APP BACE1 binding peptide/Tat fusion peptides to decrease Aβ production, CHO cells overexpressing either human wild-type APP (CHO/APPwt cells) or Swedish mutant APP (hereinafter referred to as “CHO/APPswe cells”) are treated with a variety of APP-based BACE1 inhibitor peptides, as shown in Table 1 and Table 2. Aβ production is determined using ELISA.

The subject of assay [3] is 5XFAD mice. In words: β-amyloid deposits in 5XFAD mouse brains (4G8 immunohistochemistry, image analysis). The conditions noted are these: 8 weeks i.p. treatment. Format: in vivo. From the text:
Percentage of 4G8 immunoreactive areas in regions of interest (RSC, EC and H regions) was quantified by image analysis for each treatment group (B). Data are represented as mean±SD (n=10, 5 female/5 male).
5XFAD Mice—Transgenic AD mice [5XFAD; B6SJL-Tg(APPSwF1Lon,PSEN1*M146L*L286V) 6799Vas/Mmjax] at 2.5 months of age were obtained from the Jackson Laboratory (Bar Harbor, Me., USA) and housed and maintained in the Animal Facility of College of Medicine at University of South Florida. The mice at 3.5 months of age were treated with TAT-APPsweBBP, TAT peptide (100 nM/kg in 100 μl PBS) or PBS (100 μl) intraperitioneally (i.p.) daily for eight consecutive weeks. The mice were subjected to behavioral testing after 8 week-treatment and euthanized for immunohistochemical, ELISA and WB analysis after completing behavioral tests. All experiments involving mice were in compliance with the U.S. Department of Health and Human Services Guide for the Care and Use of Laboratory Animals and in accordance with the guidelines of the USF Institutional Animal Care and Use Committee.
Immunohistochemistry—Fixed cell cultures and brain sections were stained with indicated antibodies and then treated with donkey anti-mouse IgG conjugated with Alexa Fluor 488 (1:200) and goat anti-rabbit IgG conjugated with Alexa Fluor 594 (1:200; Invitrogen, Carlsbad, Calif., USA). […]

Sequence of BACE1 (P56817 46-501): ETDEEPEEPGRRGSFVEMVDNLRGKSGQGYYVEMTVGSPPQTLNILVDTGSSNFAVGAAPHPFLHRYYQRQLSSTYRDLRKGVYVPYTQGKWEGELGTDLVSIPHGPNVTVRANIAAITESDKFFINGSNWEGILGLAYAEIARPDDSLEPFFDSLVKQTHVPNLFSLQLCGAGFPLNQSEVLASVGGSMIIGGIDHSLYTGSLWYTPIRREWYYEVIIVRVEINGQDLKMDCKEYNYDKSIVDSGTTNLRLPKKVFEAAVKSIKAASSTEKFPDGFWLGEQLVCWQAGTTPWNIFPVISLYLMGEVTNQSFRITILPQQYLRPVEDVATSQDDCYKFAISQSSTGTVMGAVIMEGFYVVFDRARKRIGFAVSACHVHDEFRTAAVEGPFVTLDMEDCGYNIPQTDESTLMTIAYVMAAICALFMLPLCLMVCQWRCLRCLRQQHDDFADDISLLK

As to YGRKKRRQRRR [TAT, reference compound], the “binding to BACE1 protein (IP/WB)” value in assay [1] is given as “not observed”. In assay [2], the “Secreted Aβ40 (ng/mg; mean ± SD)” value is 11.32 ± 0.45 ng/mg, the “Secreted Aβ42 (ng/mg; mean ± SD)” value came to 1.07 ± 0.057 ng/mg and the “Secreted sAPPα (ng/mg; mean ± SD)” value is reported as 4766.34 ± 198.34 ng/mg. Moreover, the “percentage of 4G8 immunoreactive areas (β-amyloid plaques) in RSC, EC and H regions” value in assay [3] is reported as “no significant difference”.
